The values below come from patent US20070155730A1, “Benzodiazepine And Benzopiperazine Analog Inhibitors Of Histone Deacetylase” (METHYLGENE, INC., priority 2005, published 2007).

In general, IC50 refers to the concentration that gives 50% inhibition.

The target in this assay is histone deacetylase (HDAC). In words: Inhibition of Histone Deacetylase Enzymatic Activity. The format is biochemical. Particulars: substrate Boc-Lys(Ac)-AMC, Fluor-de-Lys developer, 37° C., 20 min; against one or more of HDAC-1 to HDAC-11, SirT1 to SirT7 (isoform not given); read-out: HDAC Inhibitory Activity (IC50). How it is done: The following protocol is used to assay the compounds of the invention. In the assay, the buffer used is 25 mM HEPES, pH 8.0, 137 mM NaCl, 2.7 mM KCl, 1 mM MgCl2 and the substrate is Boc-Lys(Ac)-AMC in a 50 mM stock solution in DMSO. The enzyme stock solution is 4.08 μg/mL in buffer.
The compounds are pre-incubated (2 μl in DMSO diluted to 13 μl in buffer for transfer to assay plate) with enzyme (20 μl of 4.08 μg/mL) for 10 min at room temperature (35 μl pre-incubation volume). The mixture is pre-incubated for 5 min at room temperature. The reaction is started by bringing the temperature to 37° C. and adding 16 μl substrate. Total reaction volume is 50 μl. […] A plate is incubated in the dark for 10 min at room temperature before reading (λEX=360 nm, λEm=470 nm, Cutoff filter at 435 nm).
In the table, “A” indicates inhibitory activity at a concentration of <0.05 μM; “B” indicates inhibitory activity at a concentration >0.05 μM but <0.5 μM, “C” indicates inhibitory activity at >0.5 μM but <2 μM and “D” indicates inhibitory activity at a concentration of >2 μM but <10 μM.
For the compound `CC(C)(C)OC(=O)CC[C@@H]1C(=O)Nc2ccccc2N1Cc1ccc(C(=O)NO)cc1` [Compound 54b12, (R)-tert-butyl 3-(1-(4-(hydroxycarbamoyl)benzyl)-3-oxo-1,2,3,4-tetrahydroquinoxalin-2-yl)propanoate], the IC50 is less than 50 nM.

As to `CC(C)C[C@H]1NC(=O)c2ccccc2N(CCCCCC(=O)Nc2ccccc2N)C1=O` [Compound 71, N-(2-Aminophenyl)-6-((R)-2,3,4,5-tetrahydro-3-isobutyl-2,5-dioxobenzo[e][1,4]diazepin-1-yl)hexanamide], the IC50 lay in the range of 2000 to 10000 nM.

Take `O=C(NO)c1ccc(CN2c3ccccc3NC(=O)[C@H]2Cc2ccccc2)cc1` [Compound 54b5, (R)-4-((2-benzyl-3-oxo-3,4-dihydroquinoxalin-1(2H)-yl)methyl)-N-hydroxybenzamide]: the IC50 was less than 50 nM.

Regarding `O=C(NO)c1ccc(CN2C(=O)CNC(=O)[C@H]2Cc2ccccc2)cc1` [Compound 136b, (R)-4-((2-Benzyl-3,6-dioxopiperazin-1-yl)methyl)-N-hydroxybenzamide], the IC50 was less than 50 nM.

Turning to `CC(C)[C@H]1Nc2ccc(NC(=O)CCCCCCC(=O)NO)cc2NC1=O` [Compound 24e, N1—((R)-1,2,3,4-Tetrahydro-2-isopropyl-3-oxoquinoxalin-6-yl)-N8-hydroxyoctanediamide], the IC50 is less than 50 nM.

Regarding `O=C(NO)c1ccc(CN2c3ccccc3NC(=O)[C@H]2Cc2cccs2)cc1` [Compound 54a2, 4-(((R)-2,3-Dihydro-2-oxo-3-((thiophen-2-yl)methyl)quinoxalin-4(1H)-yl)methyl)-N-hydroxybenzamide], the IC50 was less than 50 nM.

Regarding `O=C(NO)c1ccc2c(c1)NC(=O)[C@H](CC1CCCCC1)NC2=O` [Compound 97h, (S)-3-(Cycbohexylmethyl)-N-hydroxy-2,5-dioxo-2,3,4,5-tetrahydro-1H-benzo[e][1,4]diazepine-8-carboxamide], the IC50 lay in the range of 500 to 2000 nM.

Take `O=C(NO)c1ccc2c(c1)NC(=O)[C@@H](c1ccccc1)NC2=O` [Compound 97j, (R)-N-Hydroxy-2,5-dioxo-3-phenyl-2,3,4,5-tetrahydro-1H-benzo[e][1,4]diazepine-8-carboxamide]: the IC50 was in the range of 2000 to 10000 nM.

As for `O=C(NO)c1ccc2c(c1)NC(=O)[C@H](Cc1ccc(O)cc1)N2` [Compound 6h, (S)-2-(4-Hydroxybenzyl)-1,2,3,4-tetrahydro-N-hydroxy-3-oxoquinoxaline-6-carboxamide], the IC50 lay in the range of 2000 to 10000 nM.

Consider `O=C(NO)c1ccc(CN2c3ccccc3NC(=O)[C@H]2Cc2ccoc2)cc1` [Compound 54b20, (R)-4-((2-(furan-3-ylmethyl)-3-oxo-3,4-dihydroquinoxalin-1(2H)-yl)methyl)-N-hydroxybenzamide], for which the IC50 is less than 50 nM.

Regarding `O=C(NO)c1ccc(O[C@H]2C[C@H](C(=O)Nc3cccc4cccnc34)N(C(=O)OCc3ccccc3)C2)cc1` [Compound 109c, (2R,4S)- Benzyl 4-(4-(hydroxycarbamoyl)phenoxy)-2-(quinolin-8-ylcarbainoyl) pyrrolidine-1-carboxylate], the concentration for half-maximal inhibition (IC50) lay in the range of 50 to 500 nM.

With `C[C@H]1NC(=O)c2ccccc2N(CCCCCC(=O)NO)C1=O` [Compound 68b23, 6-((R)-2,3,4,5-Tetrahydro-3-methyl-2,5-dioxobenzo[e][1,4]diazepin-1-yl)-N-hydroxyhexanamide], the IC50 lay in the range of 50 to 500 nM.

Consider `CCC(C)[C@@H]1Nc2ccc(C(=O)NO)cc2NC1=O` (stereo partly drawn) [Compound 4d, (S)-2-sec-butyl-1,2,3,4-tetrahydro-N-hydroxy-3-oxoquinoxaline-6-carboxamide], for which the IC50 fell in the range of 2000 to 10000 nM.

Turning to `O=C(NO)c1ccc(CN2c3ccccc3NC(=O)[C@H]2Cc2cccc(C(F)(F)F)c2)cc1` [Compound 54b19, (R)—N-hydroxy-4-((2-(3-(trifluoromethyl)benzyl)-3-oxo-3,4-dihydroquinoxalin-1(2H)-yl)methyl)benzamide], the IC50 fell in the range of 50 to 500 nM.

`O=C(NO)c1ccc(CN2c3ccccc3NC(=O)[C@H]2Cc2ccc(F)cc2)cc1` [Compound 54b15, (R)-4-((2-(4-fluorobenzyl)-3-oxo-3,4-dihydroquinoxalin-1(2H)-yl)methyl)-N-hydroxybenzamide]: the IC50 was less than 50 nM.

Turning to `CC(C)(C)C[C@@H]1NC(=O)c2ccccc2N(CCCCCC(=O)NO)C1=O` [Compound 68b3, 6-((S)-2,3,4,5-tetrahydro-3-neopentyl-2,5-dioxobenzo[e][1,4]diazepin-1-yl)-N-hydroxyhexanamide], the IC50 lay within 50 to 500 nM.

On to `CC(C)(C)Oc1ccc(C[C@@H]2Nc3ccc(C(=O)NO)cc3NC2=O)cc1` [Compound 4h, (S)-2-(4-tert-butoxybenzyl)-1,2,3,4-tetrahydro-N-hydroxy-3-oxoquinoxaline-6-carboxamide], for which the IC50 was in the range of 2000 to 10000 nM.

In the case of `O=C(CCCCCN1C(=O)[C@H](CC2CCCCC2)NC(=O)c2ccccc21)NO` [Compound 68b20, 6-((S)-3-(Cyclohexylmethyl)-2,3,4,5-tetrahydro-2,5-dioxobenzo[e][1,4]diazepin-1-yl)-N-hydroxyhexanamide], the IC50 lay in the range of 500 to 2000 nM.

With `O=C(/C=C/c1ccc2c(c1)NC(=O)[C@@H](Cc1c[nH]c3ccccc13)N2)NO` [Compound 66f, (E)-3-((R)-2-((1H-indol-3-yl)methyl)-1,2,3,4-tetrahydro-3-oxoquinoxalin-6-yl)-N-hydroxyacrylamide], the IC50 lay in the range of 50 to 500 nM.

In the case of `O=C(NO)c1cccc(NC(=O)N2c3ccccc3NC(=O)[C@H]2Cc2ccc(F)c(F)c2)c1` [Compound 118, (R)-2-(3,4-difluorobenzyl)-N-(3-(hydroxycarbamoyl)phenyl)-3-oxo-3,4-dihydroquinoxaline-1(2H)-carboxamide], the concentration for half-maximal inhibition (IC50) lay within 50 to 500 nM.

As for `CC(C)C[C@H]1NC(=O)c2ccc(C(=O)NO)cc2NC1=O` [Compound 97f, (R)-N-Hydroxy-3-isobutyl-2,5-dioxo-2,3,4,5-tetrahydro-1H-benzo[e][1,4]diazepine-8-carboxamide], the IC50 fell in the range of 2000 to 10000 nM.

`Cn1cc(C[C@@H]2Nc3ccc(C(=O)NO)cc3NC2=O)c2ccccc21` [Compound 4l, (S)-1,2,3,4-tetrahydro-N-hydroxy-2-((1-methyl-1-H-indol-3-yl)methyl)-3-oxoquinoxaline-6-carboxamide]: the IC50 fell in the range of 500 to 2000 nM.

In the case of `O=C(CCCCCN1C(=O)C2(CCCC2)NC(=O)c2ccccc21)NO` [Compound 68b16, 6-(3,3-Spirocyclopentyl-2,5-dioxo-2,3,4,5, tetrahydrobenzo [e][1,4]diazepin-1-yl)-N-hydroxyhexanamide], the IC50 lay in the range of 2000 to 10000 nM.

As to `O=C(NO)c1ccc(CN2c3ccccc3NC(=O)[C@H]2CC2CCCCC2)cc1` [Compound 54b8, (R)-4-((2-(cyclohexylmethyl)-3-oxo-3,4-dihydroquinoxalin-1(2H)-yl)methyl)-N-hydroxybenzamide], the IC50 is 50 to 500 nM.

For `CC(C)[C@H]1NC(=O)c2ccc(C(=O)NO)cc2NC1=O` [Compound 97a, (R)—N-Hydroxy-3-isopropyl-2,5-dioxo-2,3,4,5-tetrahydro-1H-benzo[e][1,4]diazepine-8-carboxamide], the IC50 was in the range of 2000 to 10000 nM.

As to `Cc1cc(C)c(S(=O)(=O)N2c3ccc(C(=O)NO)cc3NC(=O)[C@@H]2C(C)C)c(C)c1` [Compound 18c, (S)—N-hydroxy-2-isopropyl-3-oxo-1-(2,4,6-trimethybenzenesulfonyl)-1,2,3,4-tetrahydroquinoxaline-6-carboxamide], the IC50 lay within 2000 to 10000 nM.

`O=C(CCc1ccc2c(c1)NC(=O)[C@H](Cc1c[nH]c3ccccc13)N2)NO` [Compound 69, 3-((S)-2-((1H-indol-3-yl)methyl)-1,2,3,4-tetrahydro-3-oxoquinoxalin-6-yl)-N-hydroxypropanamide]: the IC50 was 500 to 2000 nM.

Consider `O=C(CCCCCN1C(=O)[C@@H](CC2CCCCC2)NC(=O)c2ccccc21)NO` [Compound 68b21, 6-((R)-3-(cyclohexylmethyl)-2,3,4,5-tetrahydro-2,5-dioxobenzo[e][1,4]diazepin-1-yl)-N-hydroxyhexanamide], for which the IC50 was in the range of 50 to 500 nM.

As to `CC(C)[C@H]1C(=O)Nc2cc(C(=O)NO)ccc2N1Cc1ccccc1` [Compound 16g, (S)-1-benzyl-1,2,3,4-tetrahydro-N-hydroxy-2-isopropyl-3-oxoquinoxaline-6-carboxamide], the 50% inhibitory concentration (IC50) was in the range of 2000 to 10000 nM.

Take `COc1ccc(CN2C(=O)C(CCCCCC(=O)NO)NC(=O)c3ccccc32)cc1` (stereo not drawn) [Compound 82, 6-(1-(4-Methoxybenzyl)-2,3,4,5-tetrahydro-2,5-dioxo-1H-benzo[e][1,4]diazepin-3-yl)-N-hydroxyhexanamide]: the 50% inhibitory concentration (IC50) was 500 to 2000 nM.

As to `O=C(CCCCC[C@@H]1NC(=O)c2cc(NC(=O)OCc3ccccc3)ccc2NC1=O)NO` [Compound 92b, (S)-Benzyl 3-(6-(hydroxyamino)-6-oxohexyl)-2,5-dioxo-2,3,4,5-tetrahydro-1H-benzo[e][1,4]diazepin-7-ylcarbamate], the IC50 was 50 to 500 nM.

With `O=C(NO)c1ccc(CN2c3ccccc3NC(=O)[C@H]2Cc2cccnc2)cc1` [Compound 54b21, (R)—N-hydroxy-4-((3-oxo-2-(pyridin-3-ylmethyl)-3,4-dihydroquinoxalin-1(2H)-yl)methyl)benzamide], the IC50 is less than 50 nM.

Turning to `O=C(NO)c1ccc2c(c1)NC(=O)[C@H](Cc1c[nH]c3ccccc13)N2` [Compound 4c, (S)-2-((1H-indol-3-yl)methyl)-1,2,3,4-tetrahydro-N-hydroxy-3-oxoquinoxaline-6-carboxamide], the IC50 fell in the range of 500 to 2000 nM.
